Calls of active or inactive are those of the source. The rule behind the calls is not given here.
Experiments:
[1] = target: Histone deacetylase 2 (Homo sapiens) (UniProt Q92769); experiment: Inhibition of human recombinant HDAC2 at 10^-5 M after 15 mins using fluorogenic substrate by fluorimetric assay relative to control
[2] = target: Histone deacetylase 4 (Homo sapiens) (UniProt P56524); experiment: Inhibition of human recombinant HDAC4 at 10^-5 M after 30 mins using fluorogenic substrate by fluorimetric assay relative to control
[3] = species: Homo sapiens; experiment: Induction of cell cycle arrest in human BL2 cells assessed as accumulation at G2/M phase after 24 hrs by propidium iodide-staining based flow cytometry; type: functional
[4] = target: T1, Protein deacetylase HDAC6 (Homo sapiens) (UniProt Q9UBN7); experiment: Inhibition of HDAC6 in human HT-29 cells assessed as acetylated alpha-tubulin levels at 25 uM after 24 hrs by Western blot analysis relative to control; type: cell-based
T1 sequence (whole entry): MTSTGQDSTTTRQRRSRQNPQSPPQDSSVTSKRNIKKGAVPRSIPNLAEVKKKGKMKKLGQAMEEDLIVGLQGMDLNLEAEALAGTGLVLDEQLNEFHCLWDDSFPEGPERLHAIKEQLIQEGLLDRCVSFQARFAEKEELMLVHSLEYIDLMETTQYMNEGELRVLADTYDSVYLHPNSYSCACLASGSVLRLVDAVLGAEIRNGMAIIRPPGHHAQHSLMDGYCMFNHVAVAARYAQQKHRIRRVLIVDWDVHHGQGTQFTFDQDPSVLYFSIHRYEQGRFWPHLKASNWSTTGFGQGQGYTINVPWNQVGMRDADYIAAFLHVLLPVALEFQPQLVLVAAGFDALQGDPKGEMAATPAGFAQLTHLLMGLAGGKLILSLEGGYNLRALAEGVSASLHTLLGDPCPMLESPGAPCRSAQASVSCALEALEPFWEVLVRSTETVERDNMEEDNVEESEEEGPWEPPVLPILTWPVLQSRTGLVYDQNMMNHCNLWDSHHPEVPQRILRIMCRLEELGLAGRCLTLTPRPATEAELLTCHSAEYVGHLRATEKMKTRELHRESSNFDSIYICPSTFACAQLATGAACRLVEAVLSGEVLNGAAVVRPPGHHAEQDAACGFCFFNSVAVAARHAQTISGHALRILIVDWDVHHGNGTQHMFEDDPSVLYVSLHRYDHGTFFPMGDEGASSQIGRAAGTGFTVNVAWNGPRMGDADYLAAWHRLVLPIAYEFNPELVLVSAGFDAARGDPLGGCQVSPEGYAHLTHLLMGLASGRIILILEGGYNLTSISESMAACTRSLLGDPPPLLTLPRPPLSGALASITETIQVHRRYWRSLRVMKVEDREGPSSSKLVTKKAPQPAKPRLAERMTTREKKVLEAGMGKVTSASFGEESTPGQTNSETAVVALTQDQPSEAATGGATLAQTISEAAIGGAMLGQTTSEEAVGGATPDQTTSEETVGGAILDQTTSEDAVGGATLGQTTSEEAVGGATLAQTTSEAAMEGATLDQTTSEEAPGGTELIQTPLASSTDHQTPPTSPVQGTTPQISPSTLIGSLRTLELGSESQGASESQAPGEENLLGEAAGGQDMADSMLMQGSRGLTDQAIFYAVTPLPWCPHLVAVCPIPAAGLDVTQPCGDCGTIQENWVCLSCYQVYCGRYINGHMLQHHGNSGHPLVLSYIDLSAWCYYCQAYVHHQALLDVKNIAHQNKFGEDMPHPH

[5] = Induction of apoptosis in human BL2 cells assessed as early apoptotic cells at 10 nM after 48 hrs by annexin V-FITC/propidium iodide double staining-based flow cytometry (reference value: 8.2%); type: functional
[6] = system: BXPC-3; experiment: Antiproliferative activity against human BxPC3 cells after 72 hrs by MTS assay; type: functional; conditions: Homo sapiens, BXPC-3, 72 h
[7] = target: T2, Protein deacetylase HDAC6 (Homo sapiens, UniProt Q9UBN7)
T2 sequence (Q9UBN7 whole entry): T1 sequence (whole entry)
Description: (§1) Inhibition of human recombinant HDAC6 after 30 mins using fluorogenic substrate by fluorimetric assay

[8] = system: U-87 MG; experiment: Antiproliferative activity against human U87 cells after 72 hrs by MTS assay; type: functional, U-87MG ATCC; conditions: Homo sapiens, U-87 MG, 72 h
[9] = system: MIA PaCa-2; experiment: Antiproliferative activity against human MIAPaCa2 cells after 72 hrs by MTS assay; type: functional; conditions: Homo sapiens, MIA PaCa-2, 72 h
[10] = system: PBL; experiment: Cytotoxicity against human PBL cells assessed as cell growth inhibition after 72 hrs by MTS assay; type: ADME, cell-based
[11] = system: HCT-116; experiment: Antiproliferative activity against human HCT116 cells after 72 hrs by MTS assay; type: functional; conditions: Homo sapiens, HCT-116, 72 h
[12] = system: HCT-116; experiment: Induction of cell cycle arrest in human HCT116 cells assessed as accumulation at G2/M phase at 5 to 10 nM after 24 hrs by propidium iodide-staining based flow cytometry; type: functional
[13] = Lipophilicity, log P of the compound; type: physicochemical; conditions: octanol/water
[14] = target: Histone deacetylase 9 (Homo sapiens) (UniProt Q9UKV0); experiment: Inhibition of human recombinant HDAC9 at 10^-5 M after 30 mins using fluorogenic substrate by fluorimetric assay relative to control
[15] = Inhibition of sheep brain tubulin polymerization assessed as reduction in rate of microtubule assembly by DAPI-fluorescence based assay; design: species or system Ovis aries
[16] = system: U-87 MG; experiment: Potency index, ratio of IC50 for TSA to IC50 for test compound for antiproliferative activity against human U87 cells after 72 hrs by MTS assay; type: functional, U-87MG ATCC
[17] = system: K562; experiment: Induction of cell cycle arrest in human K562 cells assessed as accumulation at G2/M phase at 5 to 10 nM after 24 hrs by propidium iodide-staining based flow cytometry; type: functional
[18] = target: T3, Histone deacetylase 8 (Homo sapiens) (UniProt Q9BY41); experiment: Inhibition of HDAC8 in human HT-29 cells assessed as acetylated SMC3 levels at 25 uM after 24 hrs by Western blot analysis relative to control; type: cell-based
T3 sequence (whole entry): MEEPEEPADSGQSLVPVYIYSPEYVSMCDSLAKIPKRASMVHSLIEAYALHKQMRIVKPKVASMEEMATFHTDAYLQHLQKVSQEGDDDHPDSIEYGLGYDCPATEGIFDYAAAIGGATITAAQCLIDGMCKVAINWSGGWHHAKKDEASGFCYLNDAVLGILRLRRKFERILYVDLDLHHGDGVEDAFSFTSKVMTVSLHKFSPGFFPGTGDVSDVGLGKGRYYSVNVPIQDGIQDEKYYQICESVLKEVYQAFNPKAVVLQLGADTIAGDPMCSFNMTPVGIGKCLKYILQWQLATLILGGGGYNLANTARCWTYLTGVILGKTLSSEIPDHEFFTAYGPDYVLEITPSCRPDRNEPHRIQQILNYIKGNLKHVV

[19] = system: K-562R; experiment: Potency index, ratio of IC50 for TSA to IC50 for test compound for antiproliferative activity against human K562R cells after 72 hrs by MTS assay; type: functional
[20] = target: T4, Histone deacetylase 8 (Homo sapiens, UniProt Q9BY41); experiment: Inhibition of human recombinant HDAC8 after 30 mins using fluorogenic substrate by fluorimetric assay
T4 sequence (Q9BY41 whole entry): T3 sequence (whole entry)

[21] = target: T2, Protein deacetylase HDAC6; remark: listed apart in the source
Description: as §1

Histone deacetylase 9 (Homo sapiens), sequence (Q9UKV0 whole entry): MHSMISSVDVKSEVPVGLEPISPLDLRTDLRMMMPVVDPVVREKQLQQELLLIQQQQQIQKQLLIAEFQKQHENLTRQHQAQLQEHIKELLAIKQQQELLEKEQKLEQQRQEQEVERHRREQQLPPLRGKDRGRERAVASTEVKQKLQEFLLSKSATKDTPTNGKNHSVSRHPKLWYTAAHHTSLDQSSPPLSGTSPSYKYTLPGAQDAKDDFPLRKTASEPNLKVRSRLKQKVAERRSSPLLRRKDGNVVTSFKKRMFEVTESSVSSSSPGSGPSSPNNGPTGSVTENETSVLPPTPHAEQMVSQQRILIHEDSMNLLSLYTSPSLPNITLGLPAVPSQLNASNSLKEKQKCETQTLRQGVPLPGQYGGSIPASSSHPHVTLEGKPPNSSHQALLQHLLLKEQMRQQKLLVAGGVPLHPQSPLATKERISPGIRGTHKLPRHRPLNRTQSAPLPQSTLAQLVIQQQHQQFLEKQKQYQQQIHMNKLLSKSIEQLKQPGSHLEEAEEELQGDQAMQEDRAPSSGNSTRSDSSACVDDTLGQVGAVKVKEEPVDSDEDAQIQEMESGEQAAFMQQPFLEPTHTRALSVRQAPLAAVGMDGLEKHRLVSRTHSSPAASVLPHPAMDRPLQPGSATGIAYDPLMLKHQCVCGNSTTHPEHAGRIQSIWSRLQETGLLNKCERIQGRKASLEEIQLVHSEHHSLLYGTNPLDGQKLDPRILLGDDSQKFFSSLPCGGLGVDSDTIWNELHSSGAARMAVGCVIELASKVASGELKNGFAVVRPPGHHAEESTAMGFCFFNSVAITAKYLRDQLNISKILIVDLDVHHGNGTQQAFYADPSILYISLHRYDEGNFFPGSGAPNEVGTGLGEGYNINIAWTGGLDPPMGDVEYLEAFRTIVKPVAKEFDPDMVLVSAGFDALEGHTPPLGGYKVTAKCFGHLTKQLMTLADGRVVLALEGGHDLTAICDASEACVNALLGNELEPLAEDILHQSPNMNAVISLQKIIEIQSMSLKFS
Histone deacetylase 2 (Homo sapiens), sequence (Q92769 whole entry): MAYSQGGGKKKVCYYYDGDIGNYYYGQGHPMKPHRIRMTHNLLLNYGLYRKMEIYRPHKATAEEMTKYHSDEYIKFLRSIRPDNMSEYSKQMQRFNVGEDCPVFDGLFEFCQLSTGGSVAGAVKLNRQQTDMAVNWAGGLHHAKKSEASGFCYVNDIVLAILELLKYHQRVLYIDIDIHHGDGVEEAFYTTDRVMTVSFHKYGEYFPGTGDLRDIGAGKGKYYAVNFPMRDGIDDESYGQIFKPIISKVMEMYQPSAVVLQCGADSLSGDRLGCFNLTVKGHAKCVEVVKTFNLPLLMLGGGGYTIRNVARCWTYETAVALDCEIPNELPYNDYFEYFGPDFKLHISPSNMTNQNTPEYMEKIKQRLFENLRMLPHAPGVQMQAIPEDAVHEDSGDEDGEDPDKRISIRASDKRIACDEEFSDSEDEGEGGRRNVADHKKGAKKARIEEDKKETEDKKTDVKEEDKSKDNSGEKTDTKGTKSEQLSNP
Histone deacetylase 4 (Homo sapiens), sequence (P56524 whole entry): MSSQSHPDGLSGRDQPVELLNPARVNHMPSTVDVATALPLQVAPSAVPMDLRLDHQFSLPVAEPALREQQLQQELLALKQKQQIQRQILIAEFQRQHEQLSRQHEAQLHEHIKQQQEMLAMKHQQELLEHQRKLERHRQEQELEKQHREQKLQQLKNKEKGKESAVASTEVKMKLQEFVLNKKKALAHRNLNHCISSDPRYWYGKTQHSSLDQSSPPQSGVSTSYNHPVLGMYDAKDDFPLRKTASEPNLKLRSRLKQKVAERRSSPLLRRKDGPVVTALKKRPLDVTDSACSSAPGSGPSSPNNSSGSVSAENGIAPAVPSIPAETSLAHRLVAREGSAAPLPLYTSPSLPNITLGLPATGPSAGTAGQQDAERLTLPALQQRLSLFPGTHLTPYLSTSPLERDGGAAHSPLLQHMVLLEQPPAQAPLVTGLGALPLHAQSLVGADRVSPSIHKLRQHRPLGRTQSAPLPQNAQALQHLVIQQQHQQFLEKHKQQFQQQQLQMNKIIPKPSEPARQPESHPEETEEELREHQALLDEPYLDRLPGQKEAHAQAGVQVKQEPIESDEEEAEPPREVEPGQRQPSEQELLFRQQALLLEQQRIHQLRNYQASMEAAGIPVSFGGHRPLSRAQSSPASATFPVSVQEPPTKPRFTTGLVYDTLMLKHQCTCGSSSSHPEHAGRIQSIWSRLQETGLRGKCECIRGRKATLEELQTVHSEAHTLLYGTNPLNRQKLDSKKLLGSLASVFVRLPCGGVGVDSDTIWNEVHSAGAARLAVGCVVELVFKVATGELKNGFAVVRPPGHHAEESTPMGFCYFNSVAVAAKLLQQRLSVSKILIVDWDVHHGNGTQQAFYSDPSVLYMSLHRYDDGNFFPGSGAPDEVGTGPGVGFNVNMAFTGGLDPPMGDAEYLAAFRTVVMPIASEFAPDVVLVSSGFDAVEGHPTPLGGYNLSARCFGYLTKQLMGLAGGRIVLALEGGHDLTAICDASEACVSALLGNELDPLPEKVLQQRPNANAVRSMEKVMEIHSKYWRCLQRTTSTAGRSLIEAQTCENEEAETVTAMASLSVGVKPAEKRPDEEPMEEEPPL

In the case of `C=C(c1ccc(OC)c(/C=C/C(=O)NO)c1)c1cc(OC)c(OC)c(OC)c1`, the inhibition [1] is reported as less than 50%, the inhibition [2] is reported as less than 50% and the Activity [3] is reported as “Active”. The fold change (FC) [4] was 0.5, the Activity [5] was 82.1% and the GI50 [6] was 2.9 nM. It also gave an IC50 [7] of 15000 nM, a GI50 [8] of 1.6 nM and a GI50 [9] of 5.1 nM. The IC50 [10] was 7000 nM, the GI50 [11] was 1.5 nM and the Activity [12] was “Active”. The logP ([13]; read-out: logP) was 2.93, the inhibition [14] was less than 50% and the IC50 [15] was 1600 nM. The “Ratio IC50” value [16] was 650, the Activity [17] was “Active” and the fold change (FC) [18] was 5.4. The “Ratio IC50” value [19] was 60.
For `C=C(c1ccc(OC)c(O)c1)c1cc(OC)c(OC)c(OC)c1`, the inhibition [1] was “inactive”, the inhibition [2] was “inactive” and the IC50 [20] was “Not Active”. It also gave an Activity [5] of 81.7%, a GI50 [6] of 20 nM and a GI50 [8] of 8 nM. For the same molecule, the GI50 [9] was 10 nM, the IC50 [10] was 1700 nM and the GI50 [11] was 2 nM. The logP [13] was 2.16, the inhibition [14] was “inactive” and the IC50 [15] was 2000 nM. For the same molecule, the IC50 [21] was “Not Active”.
